Key:
INS-1 cells = assay: Stimulation test of insulin secretion by INS-1 cells; format: cell-based; settings: Rattus norvegicus, INS1, 1 h, insulin secretion by INS-1 cells in response to glucose; for insulin secretion, % of control at 10 µM: read-out: HGP % of ctrl @ 10 μM; for insulin secretion, % of control at 50 µM: read-out: HGP % of ctrl @ 50 μM
Description: The different compounds were tested on an INS-1 beta-pancreatic line in order to evaluate their capability of potentializing the insulin secretion in response to glucose. Very briefly, the cells are cultivated in a culture medium, RPMI 1640 with 10 mM glucose containing 1 mM of sodium pyruvate, 50 μM of 2-mercaptoethanol, 2 mM of glutamine, 10 mM of HEPES, 100 IU/ml of penicillin, 100 μg/ml of streptomycin and 10% of inactivated fetal calf serum, as described by Asfari et al.. For the insulin secretion test, the INS-1 cells are sown and cultivated in 96-well plates. After 3 days of cultivation at 37° C. in a humid atmosphere (95% air/5% CO2), the medium is removed and the cells are incubated for 16 h in a medium containing 5 mM of glucose and 1% of inactivated fetal calf serum. On the day of the test, the cells are washed with a Krebs buffer (pH 7.4) containing 0.1% of bovine albumin and then pre-incubated for 30 min at 37° C. in this same buffer containing 2.8 mM of glucose. Finally, the cells are again washed with Krebs buffer and then incubated for 1 h in the buffer of the secretion test (Krebs, pH 7.4 containing 0.1% of bovine albumin and 3.5 mM of glucose and molecules to be evaluated). At the end of the test, the cell supernatant is recovered in order to measure therein the secreted insulin, by means of an ELISA kit using a rat anti-insulin antibody (ELISA Alpco Cat no. 80-INSRTH-E10). Each condition is tested in triplicate. The 3.5 mM glucose, the 10^−7M GLP-1 and the Forskoline 10^−7/IBMX 10^−5M mixtures are used as positive controls of the test. A compound stimulates the secretion of insulin if this factor is greater than or equal to 130% of the control for a given glucose dose.

isolated rat hepatocytes = assay: Hepatic production of glucose, 3 h incubation; format: cell-based, Wistar rat; settings: for activity at 50 µM / activity at 100 µM: Hepatocyte, rat hepatocytes; for activity at 50 µM: read-out: HGP % of ctrl @ 50 μM; for activity at 100 µM: read-out: HGP % of ctrl @ 100 μM
Description: The hepatocytes are isolated from Wistar rat liver having fasted for 24 h after perfusion of collagenase in the portal vein. 1) The freshly isolated hepatocytes are sown in 6-well plates coated with collagen and containing an adhesion medium (Williams Medium). After adhesion, the medium is replaced with RPMI 1640 medium without any glucose, containing hydrocortisone (7·10^−5M) for a duration from 16 to 18 h. The next day, the glucose hepatic production test is conducted in a Krebs medium for 3 h. The basal conditions are cells incubated with only Krebs, the stimulated conditions are the cells placed in Krebs+lactate+pyruvate, the produced conditions are the cells exposed to chemical compounds in a Krebs/lactate/pyruvate medium. In the case when the compounds are dissolved in DMSO, all the conditions of the tests are met in the presence of a final concentration of 0.1% DMSO. The positive control of the test is the mercaptopicolinate known for its inhibitory action on hepatic production of glucose via the phosphoenolpyruvate carboxykinase. For short term treatments, the compounds are incubated for 3 h. For long term treatments, the compounds are incubated for 20 h at the moment when the hepatocytes are cultivated in RPMI and then added during the hepatic production test for 3 h. At the end of the 3 hours of incubation, the supernatant is recovered for measurement of glucose with a colorimetric method using glucose oxidase. The cells are lysed with a 0.1% NaOH aqueous solution in order to measure the amount of protein with the Lowry method. The results are expressed in mmol of glucose per mg of protein.

CCOC(=O)COCc1nc2ccccn2c1C#Cc1ccc(C)cc1 [Derivative 2, ethyl 2-((3-(p-tolylethynyl)-imidazo[1,2-a]pyridin-2-yl)-methoxy)acetate]
insulin secretion, % of control at 10 µM (INS-1 cells): 127% | insulin secretion, % of control at 50 µM (INS-1 cells): 333%

CCOC(=O)COCc1nc2ccccn2c1C#Cc1ccc(OC)cc1 [Derivative 4, ethyl 2-((3-((4-methoxyphenyl)-ethynyl)-imidazo[1,2-a]pyridin-2-yl)-methoxy)acetate]
activity at 50 µM (isolated rat hepatocytes): 81% | activity at 100 µM (isolated rat hepatocytes): 74%

CCOC(=O)COCc1nc2ccccn2c1C#Cc1ccc([N+](=O)[O-])cc1 [Derivative 5, ethyl 2-((3-((4-nitrophenyl)-ethynyl)imidazo[1,2-a]pyridin-2-yl)methoxy)acetate]
insulin secretion, % of control at 10 µM (INS-1 cells): 180% | insulin secretion, % of control at 50 µM (INS-1 cells): 195%

CCOC(=O)COCc1nc2ccccn2c1C#Cc1cccc(C(F)(F)F)c1 [Derivative 7, ethyl 2-((3-((3-(trifluoromethyl)-phenyl)ethynyl)imidazo[1,2-a]pyridin-2-yl)methoxy)acetate]
activity at 50 µM (isolated rat hepatocytes): 55% | activity at 100 µM (isolated rat hepatocytes): 45% | inhibition of hepatic production of glucose (isolated rat hepatocytes; with two doses): strongest inhibitions

CCOC(=O)COCc1nc2ccccn2c1C#Cc1ccsc1 [Derivative 9, ethyl 2-((3-(thiophen-3-ylethynyl)-imidazo[1,2-a]pyridin-2-yl)methoxy)acetate]
insulin secretion, % of control at 10 µM (INS-1 cells): 116% | insulin secretion, % of control at 50 µM (INS-1 cells): 175%

CCOC(=O)COCc1nc2ccccn2c1C#Cc1ccc(F)c(F)c1 [Derivative 10, ethyl 2-((3-((3,4-difluorophenyl)-ethynyl)imidazo[1,2-a]pyridin-2-yl)methoxy)acetate]
activity at 50 µM (isolated rat hepatocytes): 86% | activity at 100 µM (isolated rat hepatocytes): 71%

CCOC(=O)COCc1nc2ccccn2c1C#Cc1cccc(F)c1 [Derivative 23, ethyl 2-((3-((3-fluorophenyl)-ethynyl)imidazo[1,2-a]pyridin-2-yl)methoxy)acetate]
activity at 50 µM (isolated rat hepatocytes): 95% | activity at 100 µM (isolated rat hepatocytes): 73%

O=C(O)COCc1nc2ccccn2c1C#Cc1cccc(OC(F)(F)F)c1 [Derivative 29, 2-((3-((3-(trifluoromethoxy)phenyl)-ethynyl)imidazo[1,2-a]pyridin-2-yl)methoxy)acetic acid]
activity at 50 µM (isolated rat hepatocytes): 63% | activity at 100 µM (isolated rat hepatocytes): 40% | inhibition of hepatic production of glucose (isolated rat hepatocytes; dose of 100 μM): strongest inhibitions

COc1cccc(C#Cc2c(COCC(=O)O)nc3ccccn23)c1 [Derivative 30, 2-((3-((3-methoxyphenyl)ethynyl)-imidazo[1,2-a]pyridin-2-yl)methoxy)acetic acid]
activity at 50 µM (isolated rat hepatocytes): 74% | activity at 100 µM (isolated rat hepatocytes): 60%

O=C(O)COCc1nc2ccccn2c1C#Cc1cccc(OC(F)F)c1 [Derivative 35, 2-((3-((3-(difluoromethoxy)phenyl)-ethynyl)imidazo[1,2-a]pyridin-2-yl)methoxy)acetic acid]
activity at 50 µM (isolated rat hepatocytes): 73% | activity at 100 µM (isolated rat hepatocytes): 64%

O=C([O-])COCc1nc2ccccn2c1C#Cc1cccc(C(F)(F)F)c1.[Na+] [Derivative 51, sodium 2-((3-((3-(trifluoromethyl)-phenyl)ethynyl)imidazo[1,2-a]pyridin-2-yl)methoxy)acetate]
activity at 50 µM (isolated rat hepatocytes): 61% | activity at 100 µM (isolated rat hepatocytes): 45% | inhibition of hepatic production of glucose (isolated rat hepatocytes; dose of 100 μM): strongest inhibitions

COC(=O)c1ccccc1OCc1nc2ccccn2c1C#Cc1cccc(C(F)(F)F)c1 [Derivative 77, methyl 2-((3-((3-(trifluoromethyl)-phenyl)ethynyl)imidazo[1,2-a]pyridin-2-yl)methoxy)benzoate]
activity at 50 µM (isolated rat hepatocytes): 87% | activity at 100 µM (isolated rat hepatocytes): 50% | inhibition of hepatic production of glucose (isolated rat hepatocytes; dose of 100 μM): strongest inhibitions

O=C(O)c1ccccc1OCc1nc2ccccn2c1C#Cc1cccc(C(F)(F)F)c1 [Derivative 89, 2-((3-((3-(trifluoromethyl)phenyl)-ethynyl)imidazo[1,2-a]pyridin-2-yl)methoxy)benzoic acid]
activity at 50 µM (isolated rat hepatocytes): 78% | activity at 100 µM (isolated rat hepatocytes): 33% | inhibition of hepatic production of glucose (isolated rat hepatocytes; dose of 100 μM): strongest inhibitions

O=C(O)c1ccc(OCc2nc3ccccn3c2C#Cc2cccc(C(F)(F)F)c2)cc1 [Derivative 90, 4-((3-((3-(trifluoromethyl)phenyl)-ethynyl)imidazo[1,2-a]pyridin-2-yl)methoxy)benzoic acid]
activity at 50 µM (isolated rat hepatocytes): 77% | activity at 100 µM (isolated rat hepatocytes): 27% | inhibition of hepatic production of glucose (isolated rat hepatocytes; dose of 100 μM): strongest inhibitions

O=C(O)c1cccc(OCc2nc3ccccn3c2C#Cc2ccccc2)c1 [Derivative 93, 3-((3-(phenylethynyl)imidazo[1,2-a]pyridin-2-yl)methoxy) benzoic acid]
activity at 50 µM (isolated rat hepatocytes): 26% | activity at 100 µM (isolated rat hepatocytes): 19% | inhibition of hepatic production of glucose (isolated rat hepatocytes; with two doses): strongest inhibitions

CN(C)CCNC(=O)c1ccccc1OCc1nc2ccccn2c1C#Cc1ccc(F)cc1 [Derivative 95, N-(2-(dimethylamino)ethyl)-2-((3-((4-fluorophenyl)ethynyl)-imidazo[1,2-a]pyridin-2-yl)methoxy)benzamide]
activity at 50 µM (isolated rat hepatocytes): 65% | activity at 100 µM (isolated rat hepatocytes): 62%

O=C(NO)c1ccccc1OCc1nc2ccccn2c1C#Cc1ccc(F)cc1 [Derivative 96, 2-((3-((4-fluorophenyl)ethynyl)-imidazo[1,2-a]pyridin-2-yl)-methoxy)-N-hydroxybenzamide]
activity at 50 µM (isolated rat hepatocytes): 81% | activity at 100 µM (isolated rat hepatocytes): 66%

CC1(C)COC(=O)C1OCc1nc2ccccn2c1C#Cc1cccc(C(F)(F)F)c1 (stereo not shown) [Derivative 99, 4,4-dimethyl-3-[[3-[2-[3-(trifluoromethyl)phenyl]ethynyl]imidazo[1,2-a]pyridin-2-yl]methoxy]-tetrahydrofuran-2-one]
activity at 50 µM (isolated rat hepatocytes): 85% | activity at 100 µM (isolated rat hepatocytes): 68%

CCOC(=O)CSCc1nc2ccccn2c1C#Cc1cccc(C(F)(F)F)c1 [Derivative 108, ethyl 2-[[3-[2-[3-(trifluoromethyl)-phenyl]ethynyl]imidazo[1,2-a]pyridin-2-yl]methylsulfanyl]acetate]
activity at 50 µM (isolated rat hepatocytes): 89% | activity at 100 µM (isolated rat hepatocytes): 64%

CCOC(=O)CSCc1nc2ccccn2c1C#Cc1cccc(OC(F)(F)F)c1 [Derivative 109, ethyl 2-[[3-[2-[3-(trifluoromethoxy)-phenyl]ethynyl]imidazo[1,2-a]pyridin-2-yl]methylsulfanyl]acetate]
activity at 50 µM (isolated rat hepatocytes): 80% | activity at 100 µM (isolated rat hepatocytes): 61%

O=C(O)CSCc1nc2ccccn2c1C#Cc1cccc(C(F)(F)F)c1 [Derivative 115, 2-[[3-[2-[3-(trifluoromethyl)phenyl]-ethynyl]imidazo[1,2-a]pyridin-2-yl]methylsulfanyl]acetic acid]
activity at 50 µM (isolated rat hepatocytes): 94% | activity at 100 µM (isolated rat hepatocytes): 54% | inhibition of hepatic production of glucose (isolated rat hepatocytes; dose of 100 μM): strongest inhibitions

O=C(O)CSCc1nc2ccccn2c1C#Cc1cccc(OC(F)(F)F)c1 [Derivative 116, 2-[[3-[2-[3-(trifluoromethoxy)-phenyl]ethynyl]imidazo[1,2-a]pyridin-2-yl]methylsulfanyl] acetic acid]
activity at 50 µM (isolated rat hepatocytes): 88% | activity at 100 µM (isolated rat hepatocytes): 64%

O=C(O)CSCc1nc2ccc(Cl)cn2c1C#Cc1cccc(OC(F)(F)F)c1 [Derivative 119, 2-[[6-chloro-3-[2-[3-(trifluoro-methoxy)phenyl]ethynyl]imidazo [1,2-a]pyridin-2-yl]methyl-sulfanyl]acetic acid]
activity at 50 µM (isolated rat hepatocytes): 73%

O=C(CSCc1nc2ccccn2c1C#Cc1cccc(OC(F)(F)F)c1)Nc1cccnc1 [Derivative 126, N-(3-pyridyl)-2-[[3-[2-[3-(trifluoromethoxy)phenyl]ethynyl]imidazo[1,2-a]pyridin-2-yl]methylsulfanyl]acetamide]
activity at 50 µM (isolated rat hepatocytes): 72% | activity at 100 µM (isolated rat hepatocytes): 68%
